These results are taken from PMC6017732, “Identification and Characterizations of Novel, Selective Histone Methyltransferase SET7 Inhibitors by Scaffold Hopping- and 2D-Molecular Fingerprint-Based Similarity Search” (Molecules : A Journal of Synthetic Chemistry and Natural …, 2018).

Like-named read-outs stand apart in the source and are kept apart here.

Assay [1] relates to SET7. The settings on record: cited from earlier work.
In assay [2] the target is T1, SET7 (Homo sapiens, UniProt Q8WTS6).
T1 sequence (Q8WTS6 1-366): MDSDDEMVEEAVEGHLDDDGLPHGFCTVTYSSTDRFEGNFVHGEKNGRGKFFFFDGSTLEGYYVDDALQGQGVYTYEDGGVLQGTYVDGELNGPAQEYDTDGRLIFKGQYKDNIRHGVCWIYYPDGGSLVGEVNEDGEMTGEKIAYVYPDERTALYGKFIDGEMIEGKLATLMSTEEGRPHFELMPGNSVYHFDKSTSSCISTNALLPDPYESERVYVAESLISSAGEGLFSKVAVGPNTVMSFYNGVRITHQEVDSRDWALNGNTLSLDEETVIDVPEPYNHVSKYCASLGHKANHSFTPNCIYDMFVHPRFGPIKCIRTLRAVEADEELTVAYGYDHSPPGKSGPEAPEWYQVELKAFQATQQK
As to the kind of experiment: AlphaLISA SET7 inhibition assay. The assay is classed as biochemical. The following applies: AlphaLISA assay; for IC50: SET7; for inhibition at 100 µM: SET7, 100 μM, read-out: Inhibition Ratio at 100 μM/%. The procedure: AlphaLISA assays were applied to determine the inhibitory activity targeting SET7. The purified SET7 protein was incubated in modified Tris buffer in 384-well plates (Perkin Elmer, Cat. No. 6007299, Waltham, MA, USA) at room temperature for 15 min. The compounds were transferred to the assay plate using Echo in 100% DMSO, and substrate solution was added to each well to start the reaction. Acceptor and donor beads were added and incubated for 60 min at room temperature, shielded from light. The endpoint was evaluated with EndSpire in Alpha mode. The experimental data was fitted in GraphPad Prism 5 to obtain inhibition values using the equation as follows:(1) Inhibition %= Max−Siginal/Max−Min×100%

The target of assay [3] is T1, SET7. As to the kind of experiment: 3H-labeled radioisotope methylation assay. The assay is classed as biochemical. The following applies: 3H radioactive methylation assay. The procedure: As for ^3Hradioactive methylation assay, SAH was used as the reference compound and the compounds were tested in 10 concentrations in duplicate in modified Tris buffer (1× assay buffer). The following materials were purchased: SET7 (Enzo, Cat. No. ALX-201-178, New York, NY, USA), [^3H]-SAM (PerkinElmer Inc., Lot. No. 1790854), SAH (Sigma, Cat. No. A9384-25MG, St. Louis, MO, USA) and 384-well Flashplate (Perkin Elmer, Cat. No. SMP410A001PK,). The compounds were transferred to the assay plate by Echo 550 with 3-fold dilution in 100% DMSO where the final DMSO concentration is 1%. Then the enzyme solution was transferred to the assay plate and 1× assay buffer was transferred for low control. After 15 min incubation at room temperature, peptide and [^3H]-SAM mix solution was transferred to each well to start the reaction. The cold SAM in 1× buffer was added to each well to stop the reaction after 60 min incubation at room temperature. 25 μL of the whole reaction system per well was transferred to Flashplate which was washed with dH2O and 0.1% Tween-20 for three times after 60 min incubation. The data was read on Microbeta. All the inhibition assays are performed in duplicate.

Assay [4] has as its system MCF7 (breast cancer) cells. The assay is described as follows: Cell viability assay (alamarBlue / MTT), MCF7. The assay is classed as cell-based. The settings on record: Homo sapiens, MCF7, 72 h, MCF7, approximately 72 h. The procedure: (§1) MCF7, HL60, MV4-11, K562, Kasumi-1, U937, THP1, and Jurkat cell lines were purchased from American Type Culture Collection (Manassas, VA, USA). Fetal bovine serum was purchased from Life Technologies. MCF7 cells were cultured in DMEM medium supplemented with 10% fetal bovine serum at 37 °C in an incubator with 5% CO2 atmosphere. HL60 and MV4-11 cells were cultured in 1640 medium supplemented with 10% fetal bovine serum. K562, Kasumi-1 and HL60 were cultured in 96 plate at 10,000/well for 2 h. DC-S285 was dissolved in DMSO (Sigma) and then stored at 4 °C. The cells were incubated with DC-S285 at different concentrations ranging from 0 to 100 µM for approximately 72 h. The activities of […] against MCF7, HL60, MV4-11, K562, Kasumi-1, U937, THP1, and Jurkat were measured by the alamarBlue assays and MTT assays.

Assay [5] relates to Jurkat leukemia cell line. The assay is described as follows: Cell viability assay (alamarBlue / MTT), Jurkat. Format: cell-based. The settings on record: Homo sapiens, 72 h, approximately 72 h. The procedure:
as §1

For a further assay, the system named is THP1 leukemia cell line. As to the kind of experiment: Cell viability assay (alamarBlue / MTT), THP1. Format: cell-based. The following applies: Homo sapiens, THP-1, 72 h, THP1, approximately 72 h. The procedure:
as §1

In another assay the test system is U937 leukemia cell line. As to the kind of experiment: Cell viability assay (alamarBlue / MTT), U937. Format: cell-based. The following applies: Homo sapiens, U-937, 72 h, U937, approximately 72 h. The procedure: as §1
Assay [6] addresses T2, SET7 (Homo sapiens, UniProt Q8WTS6).
T2 sequence (Q8WTS6 117-366 limits assumed): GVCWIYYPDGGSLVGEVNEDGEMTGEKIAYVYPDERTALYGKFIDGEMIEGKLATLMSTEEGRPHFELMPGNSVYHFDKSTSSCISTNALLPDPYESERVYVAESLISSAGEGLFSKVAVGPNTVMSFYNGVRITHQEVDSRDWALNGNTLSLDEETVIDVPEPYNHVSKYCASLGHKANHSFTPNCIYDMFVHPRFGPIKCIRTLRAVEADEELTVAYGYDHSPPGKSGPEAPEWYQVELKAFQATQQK
As to the kind of experiment: Ligand observed T1rho (CPMG) NMR experiment. Format: binding. The following applies: 20 μM compound, 2.5 μM SET7. The procedure:
Ligand observed T1ρ NMR experiment were applied to investigate ligand-protein interactions. All NMR spectra were acquired at 25 °C on a 600 MHz Bruker Avance III spectrometer equipped with a cryogenically cooled probe (Bruker Biospin, Ettlingen, Germany). Samples containing 20 μM DC-S285, and 20 μM DC-S285 in the presence of 2.5 μM SET7 were dissolved in Tris-HCl buffer (50 mM Tris-HCl, 100 mM NaCl, pH 7.4, 5% DMSO, 95% D2O) and then used in NMR data acquisition. T1ρ spectra were recorded by using the pulse sequence of solvent-suppressed ^1D ^1H CPMG (cpmgPr1d). The 90° pulse length was adjusted to about 11.80 μs. A total of four dummy scans and 64 free induction decays (FIDs) were collected into 64 K acquisition points, covering a spectral width of 12 kHz (20 ppm) and giving an acquisition time (ACQ) of 2.73 s. STD data was acquired using 4 dummy scans and a relaxation delay of 3 s, followed by a 40 dB pulsed irradiation at frequency of −1.0 ppm or 33 ppm alternatively. The total acquisition time for STD spectrum was 23 min with 128 FIDs.

The mark [7] stands for this setting: SET7, previous research of the authors.

As for `O=C([C@@H](Cc1cccc(C(F)(F)F)c1)NS(=O)(=O)c1cc(F)c2c(c1)CCNC2)N1CCCC1` [(R)-PFI-2], the IC50 in the assay with SET7 [1] (SET7) is 0.002 µM.

Regarding `COC(=O)c1c(N)sc(C(=O)Nc2cccc([N+](=O)[O-])c2)c1C` [DC-S238], the IC50 in the assay with SET7 [1] (setting [7]) was 4.9 µM.

Regarding `CCOC(=O)c1c(N)sc(C(=O)Nc2cccc([N+](=O)[O-])c2)c1C` [DC-S239], in the assay on SET7 [1] (setting [7]), the IC50 is 4.6 µM.

`COc1ccc(C(=O)N/N=C/c2ccc([N+](=O)[O-])cc2)cc1Br` [DC-S285]: the IC50 against SET7 [2] was found to be 9.3 µM; at SET7 [3], 19.5 µM; in assay [4] it was 21.4 µM; in assay [5] it was 2200 nM; in the assay on THP1 leukemia cell line it was 3.5 µM; with U937 leukemia cell line it was 3.9 µM. Further, the “binding to SET7 in T1ρ (CPMG) NMR” value on SET7 [6] is recorded as “Strong binding signals”.

For the molecule `O=C(NN=Cc1cc2c(cc1[N+](=O)[O-])OCO2)c1ccc([N+](=O)[O-])cc1` [DC-S349], the inhibition at 100 µM at SET7 [2] is -1%.

As for `O=C(NN=Cc1cn(Cc2ccc(Cl)cc2Cl)c2ccccc12)c1ccc([N+](=O)[O-])cc1` [DC-S350], the inhibition at 100 µM at SET7 [2] turned out to be 6%.

As to `O=C(NN=Cc1cc2c(cc1Br)OCO2)c1ccc([N+](=O)[O-])cc1` [DC-S351], at SET7 [2], the IC50 came to 3.4 µM and the inhibition at 100 µM amounted to 96%.

Consider `COc1cc(OC)c(C=NNC(=O)c2ccc([N+](=O)[O-])cc2)cc1Br` [DC-S352], for which the inhibition at 100 µM on SET7 [2] was 39%.

In the case of `COc1ccc(C=NNC(=O)c2ccc([N+](=O)[O-])cc2)cc1` [DC-S353], at SET7 [2], the inhibition at 100 µM came to 35%.

Take `O=C(NN=Cc1cc([N+](=O)[O-])ccc1N1CCCCC1)c1ccc([N+](=O)[O-])cc1` [DC-S354]: the inhibition at 100 µM at SET7 [2] was 35%.

Regarding `O=C(NN=Cc1ccccc1OC(=O)c1ccc([N+](=O)[O-])cc1)c1ccc([N+](=O)[O-])cc1` [DC-S355], the inhibition at 100 µM at SET7 [2] was found to be 20%.

For the molecule `O=C(NN=Cc1c[nH]nc1-c1ccc(Cl)cc1)c1ccc([N+](=O)[O-])cc1` [DC-S356], the inhibition at 100 µM at SET7 [2] was 17%.

As to `COc1ccc(C=NNC(=O)c2ccc([N+](=O)[O-])cc2)c2ccccc12` [DC-S357], at SET7 [2], the inhibition at 100 µM was determined as 13%.

Regarding `O=C(NN=Cc1ccccc1OC(=O)c1ccc(Cl)cc1)c1ccc([N+](=O)[O-])cc1` [DC-S358], the inhibition at 100 µM on SET7 [2] amounted to 6%.

As for `O=C(NN=Cc1c(OC(=O)c2ccc(Cl)cc2)ccc2ccccc12)c1ccc([N+](=O)[O-])cc1` [DC-S359], the inhibition at 100 µM on SET7 [2] stood at 5%.

Take `COc1ccc(-c2ccc(C=NNC(=O)c3ccc([N+](=O)[O-])cc3)o2)cc1Cl` [DC-S360]: the inhibition at 100 µM on SET7 [2] is 4%.

`COc1ccc2ccccc2c1C=NNC(=O)c1ccc([N+](=O)[O-])cc1` [DC-S361]: the inhibition at 100 µM at SET7 [2] was -1%.

On to `COc1cc(C=NNC(=O)c2ccc([N+](=O)[O-])cc2)ccc1OC(C)=O` [DC-S362], for which the inhibition at 100 µM on SET7 [2] was -4%.

On to `O=C(NN=Cc1ccccc1OCc1cccc(Br)c1)c1ccc([N+](=O)[O-])cc1` [DC-S363], for which the inhibition at 100 µM at SET7 [2] was -15%.

Regarding `O=C(NN=Cc1ccc(-c2ccccc2Cl)o1)c1ccc([N+](=O)[O-])cc1` [DC-S364], on SET7 [2], half-maximal inhibition (IC50) required 3.7 µM and the inhibition at 100 µM was 54%.

As for `COc1ccc(C(=O)NN=Cc2ccc([N+](=O)[O-])cc2)cc1OC` [DC-S365], the inhibition at 100 µM at SET7 [2] was 10%.

Regarding `O=C(NN=Cc1ccc([N+](=O)[O-])cc1)c1ccc(CSc2ccccc2)cc1` [DC-S366], the inhibition at 100 µM on SET7 [2] was 9%.

As to `O=C(NN=Cc1ccc([N+](=O)[O-])cc1)c1cccc(Cl)c1` [DC-S367], the inhibition at 100 µM at SET7 [2] was -1%.

`Nc1ncnc2c1ncn2[C@@H]1O[C@H](CSCC[C@H](N)C(=O)O)[C@@H](O)[C@H]1O` [SAH, reference compound]: the IC50 at SET7 [3] amounted to 5.4 µM.
